Results on two molecules are retold here after patent US7989466B2, “Methods to inhibit or augment an inflammatory response” (Cambridge Enterprise Limited, priority 1999, dated 2011).

Assay [1] deals with T1, Recombinant human latent TGF-β1 (Homo sapiens, UniProt P01137).
T1 construct: purchased R&D Systems; host or cells: CHO cells
As to the kind of experiment: Latent TGF-β1 activation ELISA (R2X capture). It counts as biochemical. The arrangement: key: −: A minus indicates no detectable activity in the assay; +: The number of pluses is a qualitative indicating of the activity of each peptide in each assay; ++: The number of pluses is a qualitative indicating of the activity of each peptide in each assay; +++: The number of pluses is a qualitative indicating of the activity of each peptide in each assay; ++++: The number of pluses is a qualitative indicating of the activity of each peptide in each assay; +++++: The number of pluses is a qualitative indicating of the activity of each peptide in each assay. The settings on record: test peptide at 100 nM, 37° C., 90 minutes. The method, then:
To test whether a KXK tripeptide activates TGF-beta, a direct ELISA-type assay can be used. Recombinant human latent TGF-β1 produced in CHO cells (R&D Systems) was incubated with the test activator. For example, 200 ng of latent TGF-β1 (at 20 μg/ml) was incubated with test peptide at 100 nM final concentration at 37° C. for 90 minutes. Following incubation, the TGF-β is incubated with the recombinant extracellular domain of the Type II TGF-β receptor (R2X) which binds only the active and not the latent forms of TGF-β1 (Clin. Chim. Acta, 235, 11 (1995)). For example, 1 μg of purified R2X is coated onto a Maxisorp ELISA plate well in 50 μl of 100 mM sodium carbonate for 2 hours at 4° C., and non-specific protein binding then blocked incubation with 5% sucrose 5% Tween-20 in Tris-buffered saline for 1 hour at room temperature.
The TGF-β sample is then incubated with the coated and blocked wells for 2 hours at room temperature with shaking. Wells are washed 3 times quickly with Tris-buffered saline containing 0.05% Tween-20 between each incubation. If any of the latent TGF-β1 has been activated by the incubation with test peptide, it is captured by the R2X, while remaining latent TGF-β1 is washed away. Captured active TGF-β1 is then detected by incubation with a suitable detection agent, such as a peroxidase conjugated polyclonal anti-TGF-beta antibody. For example, the wells are incubated with 200 μl of BDA19 chicken anti-TGF-β1 antibody coupled to horseradish peroxidase for 90 minutes at room temperature with shaking. Any bound peroxidase is then detected using a suitable chromogenic substrate (e.g., K-BLUE TMB substrate solution). The amount of active TGF-β generated is estimated by interpolation of a standard curve constructed using known amounts of active TGF-β1 (R&D Systems).

Assay [2] has as its target recombinant human chemokine receptors (CCR1-5, CXCR4, CXCR1, CXCR2). Description: Binding of biotin-labeled peptides to chemokine receptor expressing HOS/CHO lines. The settings on record: no evidence for any binding; read-out: affinity of any binding to recombinant human chemokine receptors. The method, then: Iodinated-RANTES and iodinated-MCP-1 (Amersham) were reconstituted in MilliQ water to a concentration of 50 nM (0.1 μCi/μl) with a specific activity of 2000 Ci/mmole. Iodinated-streptavidin was obtained (Amersham) at a stock concentration of 47 nM (0.1 μCi/μl) and a specific activity of 38 μCi/μg (55,000 Da). Cold RANTES and MCP-1 were purchased from R&D Systems (Minneapolis, Minn.), reconstituted in sterile PBS+1 mg/ml fatty acid free BSA (FAF-BSA) (Sigma A-6003) at 10 μg/ml ([…]). Cold streptavidin (Calbiochem) was reconstituted in sterile MilliQ to a concentration of 4 mg/ml (90 μM).
FAF-BSA was used throughout. All experiments were performed in binding medium (50 mM HEPES, 1 mM CaCl2, 1 mM MgCl2, 0.5% FAF-BSA pH 7.5) as described by Ruffing et al. (Cell. Immunol., 189, 160 (1998)) unless stated otherwise. Reactions were all performed at 4° C. and all buffers were pre-cooled to 4° C. unless stated otherwise.
The biotinylated peptide was synthesized as an N-terminal biotin conjugate of the sequence n′-[…]-c′ (SEQ ID NO:152; Affiniti Research) and confirmed as >90% pure by HPLC. […]
The binding of labeled peptide 2 and labeled peptide 3 to the parental HOS, parental CHO and 8 chemokine receptor expressing lines was compared. […] The amount of streptavidin molecules added was calculated in each case to be approximately 50-fold in excess over the number of chemokine receptor sites. […]

T1 sequence (P01137 30-278 limits assumed): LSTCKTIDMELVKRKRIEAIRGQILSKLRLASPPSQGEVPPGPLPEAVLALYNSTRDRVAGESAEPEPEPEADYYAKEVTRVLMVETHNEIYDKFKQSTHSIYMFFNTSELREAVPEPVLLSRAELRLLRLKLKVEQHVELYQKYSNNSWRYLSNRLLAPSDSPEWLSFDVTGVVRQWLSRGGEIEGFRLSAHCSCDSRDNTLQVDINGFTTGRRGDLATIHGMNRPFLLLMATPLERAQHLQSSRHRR

For `NCCCC[C@H](NC(=O)[C@H](CCC(N)=O)NC(=O)[C@@H](N)CCCCN)C(=O)O` [KQK], the “TGF-beta Activator” value in assay [1] is “−”.

On to EICADPKQKWVQ [peptide 3(1-12)[MCP-1]], for which, in assay [2], the Kd was over 10 µM.
